# Assay results: patent publication US10479780B2, “Aminopyrazole derivatives” (Chugai Seiyaku Kabushiki Kaisha, priority 2015, dated 2019)
# Experiments:
# Type in all cases: biochemical
# [1] = molecular target: T1, human Src enzyme (Homo sapiens, UniProt P12931); assay: Src enzyme inhibitory activity (time-resolved fluorometry, biotinylated peptide phosphorylation); conditions: read-out: SRC_IC50
# T1 construct: purchased Carna Biosciences, Inc. 08-173
# Outline: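 Compounds were tested for blocking tyrosine phosphorylation of a biotinylated peptide substrate by recombinant human Src. Phosphorylated product was quantified by time-resolved fluorometry using europium cryptate and XL665 conjugates, and IC50 was calculated against the compound-free control.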
# [2] = molecular target: T2, human Yes1 enzyme (Homo sapiens, UniProt P07947); assay: Yes1 enzyme inhibitory activity (time-resolved fluorometry, biotinylated peptide phosphorylation); conditions: read-out: YES_IC50
# T2 construct: made in house
# Outline: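 Inhibition was expressed against a compound-free control to give IC50, using TR-FRET read-out (Eu-cryptate anti-pTyr antibody, streptavidin-XL665).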
# [3] = molecular target: T3, human Lck enzyme (Homo sapiens, UniProt P06239); assay: Lck enzyme inhibitory activity (time-resolved fluorometry, biotinylated peptide phosphorylation); conditions: read-out: LCK_IC50
# T3 construct: purchased Carna Biosciences, Inc. 08-170
# Outline: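 Readout pairs a europium cryptate-labelled anti-phosphotyrosine antibody with XL665-streptavidin, measured by time-resolved fluorescence. IC50 derived from percent inhibition against untreated controls.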
# T1 sequence (P12931 whole entry): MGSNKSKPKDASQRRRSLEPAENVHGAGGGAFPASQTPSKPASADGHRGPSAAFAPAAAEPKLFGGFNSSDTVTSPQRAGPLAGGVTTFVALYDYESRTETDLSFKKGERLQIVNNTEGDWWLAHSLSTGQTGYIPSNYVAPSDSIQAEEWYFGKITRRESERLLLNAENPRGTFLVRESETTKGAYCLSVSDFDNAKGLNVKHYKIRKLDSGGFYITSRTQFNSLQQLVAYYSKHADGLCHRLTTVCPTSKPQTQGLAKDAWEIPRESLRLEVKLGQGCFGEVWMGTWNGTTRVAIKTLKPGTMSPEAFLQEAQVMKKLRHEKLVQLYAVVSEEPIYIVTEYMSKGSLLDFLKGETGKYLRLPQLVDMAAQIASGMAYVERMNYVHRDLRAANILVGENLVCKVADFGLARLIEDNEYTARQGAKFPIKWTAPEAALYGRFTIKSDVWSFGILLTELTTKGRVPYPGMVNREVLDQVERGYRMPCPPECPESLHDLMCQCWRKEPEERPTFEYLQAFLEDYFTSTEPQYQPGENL
# T2 sequence (P07947 whole entry): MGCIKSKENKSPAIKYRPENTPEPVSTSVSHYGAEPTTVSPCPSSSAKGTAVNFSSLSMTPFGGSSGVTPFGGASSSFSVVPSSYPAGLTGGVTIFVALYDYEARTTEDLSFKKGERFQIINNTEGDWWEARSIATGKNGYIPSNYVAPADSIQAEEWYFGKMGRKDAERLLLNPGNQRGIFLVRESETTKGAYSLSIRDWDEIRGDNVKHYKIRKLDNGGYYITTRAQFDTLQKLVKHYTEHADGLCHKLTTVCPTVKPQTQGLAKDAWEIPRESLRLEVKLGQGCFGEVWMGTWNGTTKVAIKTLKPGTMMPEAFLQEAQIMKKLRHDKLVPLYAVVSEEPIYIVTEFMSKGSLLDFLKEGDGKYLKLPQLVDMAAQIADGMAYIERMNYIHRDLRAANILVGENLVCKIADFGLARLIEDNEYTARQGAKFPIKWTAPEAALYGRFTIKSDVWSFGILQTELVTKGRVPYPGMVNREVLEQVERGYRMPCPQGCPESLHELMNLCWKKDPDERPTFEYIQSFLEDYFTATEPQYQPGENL
# T3 sequence (P06239 whole entry): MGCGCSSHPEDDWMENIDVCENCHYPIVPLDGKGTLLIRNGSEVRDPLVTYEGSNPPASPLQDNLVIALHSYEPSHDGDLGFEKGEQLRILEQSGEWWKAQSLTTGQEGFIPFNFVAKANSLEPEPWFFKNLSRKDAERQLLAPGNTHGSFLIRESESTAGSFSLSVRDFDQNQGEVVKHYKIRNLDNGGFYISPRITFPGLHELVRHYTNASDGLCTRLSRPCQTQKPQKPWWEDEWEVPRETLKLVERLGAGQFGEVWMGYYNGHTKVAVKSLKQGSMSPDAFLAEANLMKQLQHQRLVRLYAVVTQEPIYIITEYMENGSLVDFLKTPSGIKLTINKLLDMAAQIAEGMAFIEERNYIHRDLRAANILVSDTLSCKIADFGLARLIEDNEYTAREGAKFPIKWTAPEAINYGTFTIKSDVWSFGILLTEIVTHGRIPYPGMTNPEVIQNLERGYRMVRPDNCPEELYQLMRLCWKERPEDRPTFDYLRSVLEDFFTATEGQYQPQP
SMILES,IC50 [1] [nM],IC50 [2] [nM],IC50 [3] [nM]
"Cc1cc(Oc2c(F)cccc2F)ncc1-n1ncc(C(=O)c2cc3cc(OC4CCN(CCO)CC4)c(Br)cc3[nH]2)c1N [Example 5-1-226, [5-amino-1-[6-(2,6-difluorophenoxy)-4-methylpyridin-3-yl]pyrazol-4-yl]-[6-bromo-5-[1-(2-hydroxyethyl)piperidin-4-yl]oxy-1H-indol-2-yl]methanone]",3.3,0.34,2
"Cc1cc(Oc2c(F)cccc2F)ncc1-n1ncc(C(=O)c2cc3cc(OC4CCN(C5CS(=O)(=O)C5)CC4)c(Br)cc3[nH]2)c1N [Example 5-1-228, [5-amino-1-[6-(2,6-difluorophenoxy)-4-methylpyridin-3-yl]pyrazol-4-yl]-[6-bromo-5-[1-(1,1-dioxothietan-3-yl)piperidin-4-yl]oxy-1H-indol-2-yl]methanone]",13,1.3,3.1
"Cc1cc(Oc2c(F)cccc2F)ncc1-n1ncc(C(=O)c2cc3cc(OC4CCN(C(C)C)CC4)c(C4CCN(S(C)(=O)=O)CC4)cc3[nH]2)c1N [Example 5-1-229, (5-amino-1-(6-(2,6-difluorophenoxy)-4-methylpyridin-3-yl)-1H-pyrazol-4-yl)(5-((1-isopropylpiperidin-4-yl)oxy)-6-(1-(methylsulfonyl)piperidin-4-yl)-1H-indol-2-yl)methanone]",6.1,0.77,2.4
"Cc1cc(-n2ncc(C(=O)c3cc4cc(OC5CCN(C6CCC6)CC5)c(NS(C)(=O)=O)cc4[nH]3)c2N)ccc1Oc1ccccc1F [Example 5-1-231, N-[2-[5-amino-1-[4-(2-fluorophenoxy)-3-methylphenyl]pyrazole-4-carbonyl]-5-(1-cyclobutylpiperidin-4-yl)oxy-1H-indol-6-yl] methanesulfonamide]",610,1.7,72
"Cc1cc(-n2ncc(C(=O)c3cc4cc(OC5CCN(C6CCC6)CC5)c(N)cc4[nH]3)c2N)ccc1Oc1ccccc1F [Example 5-1-232, [6-amino-5-(1-cyclobutylpiperidin-4-yl)oxy-1H-indol-2-yl]-[5-amino-1-[4-(2-fluorophenoxy)-3-methylphenyl]pyrazol-4-yl]methanone]",230,1.4,30
"Cc1cc(-n2ncc(C(=O)c3cc4cc(OC5CCN(C6CCC6)CC5)c(F)cc4[nH]3)c2N)ccc1Oc1ccccc1F [Example 5-1-234, [5-amino-1-[4-(2-fluorophenoxy)-3-methylphenyl]pyrazol-4-yl]-[5-(1-cyclobutylpiperidin-4-yl)oxy-6-fluoro-1H-indol-2-yl]methanone]",490,3.2,73
"Cc1cc(-n2ncc(C(=O)c3cc4cc(OC5CCN(C6CCC6)CC5)c(Cl)cc4[nH]3)c2N)ccc1Oc1ccccc1F [Example 5-1-235, [5-amino-1-[4-(2-fluorophenoxy)-3-methylphenyl]pyrazol-4-yl]-[6-chloro-5-(1-cyclobutylpiperidin-4-yl)oxy-1H-indol-2-yl] methanone]",430,2.9,85
"Cc1cc(-n2ncc(C(=O)c3cc4cc(OC[C@H](O)CO)c(Br)cc4[nH]3)c2N)ccc1Oc1ccccc1F [Example 5-1-237, (R)-(5-amino-1-(4-(2-fluorophenoxy)-3-methylphenyl)-1H-pyrazol-4-yl)(6-bromo-5-(2,3-dihydroxypropoxy)-1H-indol-2-yl)methanone]",180,1.5,36
"Cc1cc(-n2ncc(C(=O)c3cc4cc(OC5CCN(C(C)C)CC5)c(-c5cccs5)cc4[nH]3)c2N)ccc1Oc1ccccc1F [Example 5-1-238, [5-amino-1-[4-(2-fluorophenoxy)-3-methylphenyl]pyrazol-4-yl]-[5-(1-propan-2-ylpiperidin-4-yl)oxy-6-thiophen-2-yl-1H-indol-2-yl]methanone]",860,8.1,340
"Cc1cc(Oc2c(F)cccc2F)ncc1-n1ncc(C(=O)c2cc3cc(OC4CCN(C(C)C)CC4)c(-c4cncnc4)cc3[nH]2)c1N [Example 5-1-241, [5-amino-1-[6-(2,6-difluorophenoxy)-4-methylpyridin-3-yl]pyrazol-4-yl]-[5-(1-propan-2-ylpiperidin-4-yl)oxy-6-pyrimidin-5-yl-1H-indol-2-yl]methanone]",5.5,1.8,6.1
"Cc1cc(Oc2ccccc2F)ccc1-n1ncc(C(=O)c2cc3cc(OCC(F)F)c(N4C(=O)OC[C@H]4Cc4ccccc4)cc3[nH]2)c1N [Example 5-1-244, (4R)-3-[2-[5-amino-1-[4-(2-fluorophenoxy)-2-methylphenyl]pyrazole-4-carbonyl]-5-(2,2-difluoroethoxy)-1H-indol-6-yl]-4-benzyl-1,3-oxazolidin-2-one]",18,9.9,40

# The remaining compounds from weak to strong by IC50 [1], led by results:
IC50 [1] [nM],IC50 [2] [nM],IC50 [3] [nM],SMILES
560,3.9,46,"Cc1cc(-n2ncc(C(=O)c3cc4cc(OC5CCN(C6CS(=O)(=O)C6)CC5)c(Br)cc4[nH]3)c2N)ccc1Oc1ccccc1F [Example 5-1-227, [5-amino-1-[4-(2-fluorophenoxy)-3-methylphenyl]pyrazol-4-yl]-[6-bromo-5-[1-(1,1-dioxothietan-3-yl)piperidin-4-yl]oxy-1H-indol-2-yl]methanone]"
500,1.9,160,"Cc1cc(-n2ncc(C(=O)c3cc4cc(OC[C@H](O)CO)c(NS(C)(=O)=O)cc4[nH]3)c2N)ccc1Oc1ccccc1F [Example 5-1-242, (R)—N-(2-(5-amino-1-(4-(2-fluorophenoxy)-3-methylphenyl)-1H-pyrazole-4-carbonyl)-5-(2,3-dihydroxypropoxy)-1H-indol-6-yl)methanesulfonamide]"
340,0.92,21,"Cc1cc(-n2ncc(C(=O)c3cc4cc(OC5CCN(C6CCC6)CC5)c(N5C(=O)NC(C)(C)C5=O)cc4[nH]3)c2N)ccc1Oc1ccccc1F [Example 5-1-233, 3-(2-(5-amino-1-(4-(2-fluorophenoxy)-3-methylphenyl)-1H-pyrazole-4-carbonyl)-5-((1-cyclobutylpiperidin-4-yl)oxy)-1H-indol-6-yl)-5,5-dimethylimidazolidine-2,4-dione]"
140,1.5,41,"Cc1cc(-n2ncc(C(=O)c3cc4cc(OC5CCN(C(C)C)CC5)c(-c5cnn(C)c5)cc4[nH]3)c2N)ccc1Oc1ccccc1F [Example 5-1-236, (5-amino-1-(4-(2-fluorophenoxy)-3-methylphenyl)-1H-pyrazol-4-yl)(5-((1-isopropylpiperidin-4-yl)oxy)-6-(1-methyl-1H-pyrazol-4-yl)-1H-indol-2-yl)methanone]"
95,0.68,7,"Cc1cc(-n2ncc(C(=O)c3cc4cc(OC5CCN(C(C)C)CC5)c(C5CCN(S(C)(=O)=O)CC5)cc4[nH]3)c2N)ccc1Oc1ccccc1F [Example 5-1-230, [5-amino-1-[4-(2-fluorophenoxy)-3-methylphenyl]pyrazol-4-yl]-[6-(1-methylsulfonylpiperidin-4-yl)-5-(1-propan-2-ylpiperidin-4-yl)oxy-1H-indol-2-yl]methanone]"
89,0.46,12,"Cc1cc(-n2ncc(C(=O)c3cc4cc(OC5CCN(CCO)CC5)c(Br)cc4[nH]3)c2N)ccc1Oc1ccccc1F [Example 5-1-225, [5-amino-1-[4-(2-fluorophenoxy)-3-methylphenyl]pyrazol-4-yl]-[6-bromo-5-[1-(2-hydroxyethyl)piperidin-4-yl]oxy-1H-indol-2-yl]methanone]"
75,2,19,"Cc1cc(-n2ncc(C(=O)c3cc4cc(OC5CCN(C(C)C)CC5)c(-c5cncnc5)cc4[nH]3)c2N)ccc1Oc1ccccc1F [Example 5-1-240, [5-amino-1-[4-(2-fluorophenoxy)-3-methylphenyl]pyrazol-4-yl]-[5-(1-propan-2-ylpiperidin-4-yl)oxy-6-pyrimidin-5-yl-1H-indol-2-yl]methanone]"
40,5,16,"Cc1cc(Oc2c(F)cccc2F)ncc1-n1ncc(C(=O)c2cc3cc(OC4CCN(C(C)C)CC4)c(-c4cccs4)cc3[nH]2)c1N [Example 5-1-239, [5-amino-1-[6-(2,6-difluorophenoxy)-4-methylpyridin-3-yl]pyrazol-4-yl]-[5-(1-propan-2-ylpiperidin-4-yl)oxy-6-thiophen-2-yl-1H-indol-2-yl]methanone]"
23,7.1,57,"Cc1cc(Oc2ccccc2F)ccc1-n1ncc(C(=O)c2cc3cc(OCC(F)F)c(N4C(=O)OC[C@@H]4Cc4ccccc4)cc3[nH]2)c1N [Example 5-1-245, (4S)-3-[2-[5-amino-1-[4-(2-fluorophenoxy)-2-methylphenyl]pyrazole-4-carbonyl]-5-(2,2-difluoroethoxy)-1H-indol-6-yl]-4-benzyl-1,3-oxazolidin-2-one]"
17,0.57,6.3,"Cc1cc(Oc2c(F)cccc2F)ncc1-n1ncc(C(=O)c2cc3cc(OC4CCN(C5CC5)CC4)c(Br)cc3[nH]2)c1N [Example 5-1-224, [5-amino-1-[6-(2,6-difluorophenoxy)-4-methylpyridin-3-yl]pyrazol-4-yl]-[6-bromo-5-(1-cyclopropylpiperidin-4-yl)oxy-1H-indol-2-yl] methanone]"
